# Target: Saccharomyces cerevisiae α-glucosidase (Saccharomyces cerevisiae, UniProt P53341)
# Assay: Inhibition kinetic of α-glucosidase (Lineweaver–Burk and Michaelis–Menten fits)
# Format: biochemical
# Method: The data were fitted into both the Lineweaver–Burk and the Michaelis–Menten equation to determine the inhibition mode of the α-glucosidase for each of the COS mixtures.
# The kinetic parameters, i.e., KM, Vmax, and the kinetic constants (Ki and Kii), were determined by fitting the data into the Michaelis–Menten equation [40] using the GraphPad Prism 8.0 software programs (GraphPad Inc., La Jolla, CA, USA) for Windows. The Michaelis–Menten equation, which expresses a relationship between the substrate concentration and the reaction velocity is given as follows:(3) V=Vmax [S]/ KM(1+[I]/Ki)+[S](1+[I]/Kii) where Ki represents the kinetic binding constants of the free enzymes, Kii represents the kinetic binding constant of the enzyme–substrate complex, V represents the velocity, Vmax represents the maximum velocity, KM represents the Michaelis’ constant, [S] represents the substrate concentration, and [I] represents the inhibitor concentration. The α values were calculated to determine the inhibition modes and the inhibitor binding preference.
# Chain of Saccharomyces cerevisiae α-glucosidase (P53341 whole entry): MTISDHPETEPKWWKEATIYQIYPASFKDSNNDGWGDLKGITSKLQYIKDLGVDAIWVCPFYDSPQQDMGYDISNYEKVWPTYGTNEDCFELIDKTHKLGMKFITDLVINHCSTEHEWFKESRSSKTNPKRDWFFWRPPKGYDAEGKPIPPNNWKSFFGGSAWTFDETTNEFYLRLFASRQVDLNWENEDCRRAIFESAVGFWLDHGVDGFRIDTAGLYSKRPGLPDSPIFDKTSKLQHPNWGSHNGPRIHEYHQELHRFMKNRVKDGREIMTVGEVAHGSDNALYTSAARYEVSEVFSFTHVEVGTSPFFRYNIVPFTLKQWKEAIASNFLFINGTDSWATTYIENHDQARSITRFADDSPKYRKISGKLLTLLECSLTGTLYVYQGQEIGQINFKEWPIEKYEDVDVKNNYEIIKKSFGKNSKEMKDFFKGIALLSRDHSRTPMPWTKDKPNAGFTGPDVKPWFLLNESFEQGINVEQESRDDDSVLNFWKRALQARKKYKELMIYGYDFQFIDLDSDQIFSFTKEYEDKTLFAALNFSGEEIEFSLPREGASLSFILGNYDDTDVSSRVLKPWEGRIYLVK
smiles,measurement,value
"C[C@H]1O[C@H](O[C@H]2[C@H](O)[C@@H](O)[C@@H](O[C@H]3[C@H](O)[C@@H](O)C(O)O[C@@H]3CO)O[C@@H]2CO)[C@H](O)[C@@H](O)[C@@H]1N[C@H]1C=C(CO)[C@@H](O)[C@H](O)[C@H]1O (some centres unmarked) [Acarbose, acarbose]",Type of Inhibition,Competitive
same,α value from mixed-mode inhibition,1.86

# From paper PMC9740910, “Influence of Degree of Polymerization of Low-Molecular-Weight Chitosan Oligosaccharides on the α-Glucosidase Inhibition” (Molecules, 2022)
